“Also recorded” adds a separate entry of the source.

The values below come from patent US20150133456A1, “FLUOROERGOLINE DERIVATIVES AND USES THEREOF” (MAP PHARMACEUTICALS, INC., priority 2012, published 2015).

One series deals with Opioid (OP1/OP2/OP3). Briefly: Opioid receptor GTPγS assays. The series is classed as biochemical, human. As for the experimental part: (§1) Reagents used were the following: Assay buffer (20 mM HEPES, pH 7.4; 100 mM NaCl; 10 μg/mL saponin; 30 mM MgCl2); Membranes (recombinant human receptor membrane extracts were thawed on ice and diluted in assay buffer to give 1000 μg/mL ([…]) and kept on ice); GDP (diluted in assay buffer to give 30 μM solution (3 μM final concentration); beads (PVT-WGA (Amersham, RPNQ001), diluted in assay buffer at 25 mg/mL (0.25 mg/10 μL)); GTPγ^35S (Perkin Elmer, NEG030X), diluted in assay buffer to give 0.1 nM (final concentration); and ligand (agonist/antagonist diluted in assay buffer).
(§2) Membranes were mixed with GDP (1:1) and incubated for at least 15 minutes on ice. In parallel GTPγ^35S was mixed with the beads (1:1) just before starting the reaction. The following reagents were successively added in the wells of an Optiplate (Perkin Elmer): 50 μL test compound or reference ligand, 20 μL of the membranes:GDP mix (then 15 minute incubation for antagonist test), 10 μL of reference agonist at historical EC80 (for antagonist test) or 10 μL of assay buffer (for agonist test) and 20 μL of the GTPγ^35S:beads mix. […] The plates were then centrifuged for 10 minutes at 2000 rpm and incubated at room temperature for 1 hour and counted for 1 min/well with a Perkin Elmer TopCount reader.

Series [1] in a line: Metabolism in human liver microsomes. The note with it: 1 μM, 0.2 mg protein/mL. As for the experimental part:
Metabolism of dihydroergotamine (DHE) and 2-CF3 DHE was evaluated in human liver microsomes. DHE mesylate and 2-CF3 DHE mesylate (1 μM each) were incubated separately with human liver microsomes (0.2 mg protein/mL) in triplicate at 37° C. in 0.2 mL (final volume) incubation buffer (50 mM potassium phosphate buffer, pH 7.4, 3 mM MgCl2 and 1 mM EDTA, pH7.4) with or without cofactor, NADPH-generating system. The NADPH-generating system consisted of 1 mM NADP, pH 7.4, 5 mM glucose-6-phosphate, pH 7.4 and 1 unit/mL glucose-6-phosphate dehydrogenase. DHE was added to the incubation mixtures in water. 2-CF3-DHE was added to incubation mixtures in 50:50 (v:v) acetonitrile:water. A low level of acetonitrile in the incubation was maintained to avoid any solvent effects on enzyme activity (typically at 0.5% or lower). Reactions were initiated by the addition of the NADPH-generating system and were terminated at 0, 15, 30 and 60 minutes after initiation by the addition of […], of stop reagent (acetonitrile) containing two internal standards (4′-hydroxydiclofenac-d4 and 1′-hydroxymidazolam-d4, 200 and 50 ng/mL in the final stopped incubation, respectively). The samples were then centrifuged and the supernatant fractions were analyzed by LC/MS/MS to quantify the formation of 8′-OH-DHE (metabolite) in the DHE samples and DHE and 8′-OH-DHE in the 2-CF3-DHE samples.

Series [2] deals with Glutamate (mGlu3/mGlu5/mGlu7). Briefly: Glutamate receptor screen (Aequorin mGlu3/mGlu5, cAMP mGlu7). The series is classed as cell-based, human. How it is done:
For mGlu3 and mGlu5, CHO-K1 cells coexpressing mitochondrial apoaequorin and recombinant human receptor grown to mid-log phase in culture media without antibiotics and supplemented with doxycycline, (final concentration of 600 ng doxycycline/mL), was detached with PBS-EDTA, centrifuged and resuspended in assay buffer (HBSS, 2.1 mM CaCl2, 3 μg/mL GPT (Glutamate-Pyruvate transaminase), 4 mM MEM Sodium Pyruvate, 0.1% BSA protease free) at a concentration of 1×10^6 cells/mL. Cells were incubated at room temperature for at least 4 hours with coelenterazine h. Reference agonist/antagonist was tested to evaluate the performance of the assay and to determine EC50/IC50. […]
Cells expressing the human recombinant receptor of interest were grown in media without antibiotic and detached by gentle flushing with PBS-EDTA (5 mM EDTA), recovered by centrifugation and resuspended in assay buffer (KRH: 5 mM KCl, 1.25 mM MgSO4, 124 mM NaCl, 25 mM HEPES, 13.3 mM glucose, 1.25 mM KH2PO4, 1.45 mM CaCl2, 0.5 g/L BSA). […] Lysis buffer was added and after a 1 hour incubation, cAMP concentrations was determined according to the manufacturer specification with the HTRF kit. […] Lysis buffer was added and after a 1 hour incubation, cAMP concentrations were determined according to the manufacturer specification, with the HTRF kit.

The test system of another series is Somatostatin (SST1~SST5). Briefly: Somatostatin receptor GTPγS assays. It is filed as biochemical, human. How it is done: as §1, §2
The target in another series is T1, human 5-HT2B receptor (Homo sapiens, UniProt P41595).
T1 construct: host or cells: CHO-K1 coexpressing mitochondrial apoaequorin
T1 sequence (P41595 whole entry): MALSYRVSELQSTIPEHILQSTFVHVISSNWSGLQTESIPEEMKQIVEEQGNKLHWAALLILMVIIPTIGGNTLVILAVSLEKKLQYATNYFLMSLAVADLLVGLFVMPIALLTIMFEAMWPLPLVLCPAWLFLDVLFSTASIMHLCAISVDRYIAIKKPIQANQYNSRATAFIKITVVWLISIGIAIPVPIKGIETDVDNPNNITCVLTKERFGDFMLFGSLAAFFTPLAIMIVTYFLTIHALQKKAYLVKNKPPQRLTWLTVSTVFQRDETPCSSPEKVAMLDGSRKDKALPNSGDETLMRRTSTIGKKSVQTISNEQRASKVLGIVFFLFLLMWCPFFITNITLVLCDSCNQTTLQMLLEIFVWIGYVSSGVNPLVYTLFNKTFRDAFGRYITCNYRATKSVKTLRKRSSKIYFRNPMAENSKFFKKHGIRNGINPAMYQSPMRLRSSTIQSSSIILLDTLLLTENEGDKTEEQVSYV
Description: Aequorin assay, agonist activity at 5-HT2B. The note with it: 0.01 nM to 20,000 nM; versus Emax of α-methyl-5-HT. The series is classed as cell-based. How it is done: Percentage activation values were determined for 2-CF3 dihydroergotamine at the 5-HT2B receptor.

Turning to `CN1C[C@H](C(=O)N[C@]2(C)O[C@@]3(O)[C@@H]4CCCN4C(=O)[C@H](Cc4ccccc4)N3C2=O)CC2c3cccc4[nH]c(C(F)(F)F)c(c34)CC21` (stereo partly drawn) [2-CF3-dihydroergotamine], the “Activity (Agonism: EC50; Antagonism: IC50)” value (in the series with Opioid (OP1/OP2/OP3); in series [2]; in the series with Somatostatin (SST1~SST5)) was “Inactive” each time. In addition, the “metabolism by human liver microsomes in the presence of NADPH” value in series [1] (0 to 60 minutes) is recorded as “extensively metabolized”. Moreover, the “intrinsic clearance, slower than that of DHE” value in series [1] (with NADPH) is “about 85%”. For the same compound, the “agonist activity at the 5-HT2B receptor” value at human 5-HT2B receptor was “no agonist activity; also recorded: little agonist activity”.
